Experimental findings from patent US20260092076A1, “NOVEL COMPOUNDS” (Hoffmann-La Roche Inc., priority 2023, published 2026) are described below.

Structures can show the parent of a compound that is named as a salt.

In assay [1] the target is T1, NLRP3 (Homo sapiens, UniProt Q96P20). In words: THP-1 cells pyroptosis assay. The assay is classed as cell-based. Particulars: THP-1 cells with 1.0 μg/ml LPS, compound 3 hours, nigericin 5 μM 1 hr, resazurin readout. More on the design: Seed THP-1 cells (25,000 cells/well) containing 1.0 μg/ml LPS in 40 μl of RPMI medium; host or cells: THP-1 cells, LPS-primed, nigericin-stimulated. How it is done:
THP-1 cells (ATCC #TIB-202) were grown in RPMI containing L-glutamine (Gibco #11835) supplemented with 1 mM sodium pyruvate (Sigma #S8636) and penicillin (100 units/ml)/streptomycin (0.1 mg/ml) (Sigma #P4333) in 10% Fetal Bovine Serum (FBS) (Sigma #F0804). The cells were routinely passaged and grown to confluency (˜10^6 cells/ml). On the day of the experiment, THP-1 cells were harvested and resuspended into RPMI medium (without FBS). The cells were then counted and viability (>90%) checked by Trypan blue (Sigma #T8154). Appropriate dilutions were made to give a concentration of 625,000 cells/ml. To this diluted cell solution was added LPS (Sigma #L4524) to give a 1 μg/ml Final Assay Concentration (FAC). 40 μl of the final preparation was aliquoted into each well of a 96-well plate. The plate thus prepared was used for compound screening.
The following method step-by-step assay was followed for compound screening. • Seed THP-1 cells (25,000 cells/well) containing 1.0 μg/ml LPS in 40 μl of RPMI medium (without FBS) in 96-well, black walled, clear bottom cell culture plates coated with poly-D-lysine (VWR #734-0317) • Add 5 μl compound (8 points half-log dilution, with 10 μM top dose) or vehicle (DMSO 0.1% FAC) to the appropriate wells • Incubate for 3 hours at 37° C., 5% CO2 • Add 5 μl nigericin (Sigma #N7143) (FAC 5 μM) to all wells • Incubate for 1 hr at 37° C., 5% CO2 • At the end of the incubation period, spin plates at 300×g for 3 mins and remove supernatant • Then add 50 μl of resazurin (Sigma #R7017) (FAC 100 μM resazurin in RPMI medium without FBS) and incubate plates for a further 1-2 hours at 37° C. and 5% CO2 • Plates were read in an Envision reader at Ex 560 nm and Em 590 nm • IC50 data is fitted to a non-linear regression equation (log inhibitor vs response-variable slope 4-parameters)

Assay [2] deals with T1, NLRP3. Nature of the assay: Human whole blood IL-1β release assay. The assay is classed as cell-based. To be noted: human whole blood with 1 μg/ml LPS, compound 3 hours, nigericin 10 μM 1 hr, IL-1β by AlphaLisa. How it is done:
For systemic delivery, the ability to inhibit NLRP3 when the compounds are present within the bloodstream is of great importance. For this reason, the NLRP3 inhibitory activity of a number of compounds in human whole blood was investigated in accordance with the following protocol. • Human whole blood in Li-heparin tubes was obtained from healthy donors from a volunteer donor panel. • Plate out 80 μl of whole blood containing 1 μg/ml of LPS in 96-well, clear bottom cell culture plate (Corning #3585) • Add 10 μl compound (8 points half-log dilution with 10 μM top dose) or vehicle (DMSO 0.1% FAC) to the appropriate wells • Incubate for 3 hours at 37° C., 5% CO2 • Add 10 μl nigericin (Sigma #N7143) (10 μM FAC) to all wells • Incubate for 1 hr at 37° C., 5% CO2 • At the end of the incubation period, spin plates at 300×g for 5 mins to pellet cells and remove 20 μl of supernatant and add to 96-well v-bottom plates for IL-1β analysis (note: these plates containing the supernatants can be stored at −80° C. to be analysed at a later date) • IL-1β was measured according to the manufacturer protocol (Perkin Elmer-AlphaLisa IL-1 Kit AL220F-5000) • IC50 data is fitted to a non-linear regression equation (log inhibitor vs response-variable slope 4-parameters)
(Alpha assays give light when donor and acceptor beads are brought close together.)

T1 sequence (Q96P20 whole entry): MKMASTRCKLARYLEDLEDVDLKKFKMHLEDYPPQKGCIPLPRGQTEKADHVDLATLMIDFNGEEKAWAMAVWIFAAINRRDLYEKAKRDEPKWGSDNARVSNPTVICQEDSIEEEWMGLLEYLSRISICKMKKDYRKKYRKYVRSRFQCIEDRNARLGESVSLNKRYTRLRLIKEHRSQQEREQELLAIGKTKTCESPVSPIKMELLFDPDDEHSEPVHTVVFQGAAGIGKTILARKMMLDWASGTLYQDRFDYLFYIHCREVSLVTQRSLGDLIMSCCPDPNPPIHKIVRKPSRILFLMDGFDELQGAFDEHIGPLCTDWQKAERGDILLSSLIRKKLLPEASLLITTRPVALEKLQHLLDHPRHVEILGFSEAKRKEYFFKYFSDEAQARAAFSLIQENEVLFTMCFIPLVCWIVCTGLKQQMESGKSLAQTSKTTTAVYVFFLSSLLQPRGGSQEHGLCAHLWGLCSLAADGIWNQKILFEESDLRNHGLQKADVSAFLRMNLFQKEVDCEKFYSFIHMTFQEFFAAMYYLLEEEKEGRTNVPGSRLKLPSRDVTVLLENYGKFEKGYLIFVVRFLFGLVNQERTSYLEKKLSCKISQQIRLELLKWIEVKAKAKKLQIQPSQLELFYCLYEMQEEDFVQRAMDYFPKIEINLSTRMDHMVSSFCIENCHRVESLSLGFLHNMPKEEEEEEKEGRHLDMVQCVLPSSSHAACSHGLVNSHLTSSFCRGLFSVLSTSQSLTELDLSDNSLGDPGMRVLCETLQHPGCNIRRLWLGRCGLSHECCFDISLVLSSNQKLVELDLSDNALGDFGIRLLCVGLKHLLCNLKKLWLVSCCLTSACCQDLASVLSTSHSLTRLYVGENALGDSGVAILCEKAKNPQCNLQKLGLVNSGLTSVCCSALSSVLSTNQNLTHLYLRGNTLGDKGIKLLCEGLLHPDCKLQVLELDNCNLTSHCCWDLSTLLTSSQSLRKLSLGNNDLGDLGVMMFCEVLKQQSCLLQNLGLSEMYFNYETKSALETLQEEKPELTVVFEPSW

By IC50 is commonly meant the concentration that gives 50% inhibition. The low end stands for greater potency, the high end for weaker potency. For the molecule `Cc1cc(C(F)(F)F)cc(O)c1-c1ccc2oc(N3Cc4c[nH]c(=O)cc4C3)nc2n1` [Example 1, 2-[5-[2-Hydroxy-6-methyl-4-(trifluoromethyl)phenyl]oxazolo[4,5-b]pyridin-2-yl]-3,5-dihydro-1H-pyrrolo[3,4-c]pyridin-6-one], the IC50 came to 0.7 nM on NLRP3 [1] and 108 nM against NLRP3 [2].

With `Cc1cc(C(F)(F)F)cc(O)c1-c1ccc2oc(N3Cc4cc(=O)n(C)cc4C3)nc2n1` [Example 2, 2-[5-[2-Hydroxy-6-methyl-4-(trifluoromethyl)phenyl]oxazolo[4,5-b]pyridin-2-yl]-5-methyl-1,3-dihydropyrrolo[3,4-c]pyridin-6-one], the results for the IC50 at NLRP3 [1] and against NLRP3 [2] were 3.3 nM and 301 nM, respectively.

Take `Cc1cc(C#N)cc(O)c1-c1ccc2oc(N3Cc4c[nH]c(=O)cc4C3)nc2n1` [Example 3, 3-Hydroxy-5-methyl-4-[2-(6-oxo-3,5-dihydro-1H-pyrrolo[3,4-c]pyridin-2-yl)oxazolo[4,5-b]pyridin-5-yl]benzonitrile]: the half-inhibitory concentration (IC50) against NLRP3 [1] came to 7.7 nM; at NLRP3 [2] it was 117 nM.

In the case of `Cc1cc(Cl)cc(O)c1-c1ccc2oc(N3Cc4c[nH]c(=O)cc4C3)nc2n1` [Example 4, 2-[5-(4-Chloro-2-hydroxy-6-methyl-phenyl)oxazolo[4,5-b]pyridin-2-yl]-3,5-dihydro-1H-pyrrolo[3,4-c]pyridin-6-one], the IC50 against NLRP3 [1] stood at 1.7 nM; against NLRP3 [2], 77 nM.

For `Cc1cc(C(F)(F)F)cc(O)c1-c1ccc2oc(N3Cc4cc(=O)n(CCO)cc4C3)nc2n1` [Example 5, 5-(2-Hydroxyethyl)-2-[5-[2-hydroxy-6-methyl-4-(trifluoromethyl)phenyl]oxazolo[4,5-b]pyridin-2-yl]-1,3-dihydropyrrolo[3,4-c]pyridin-6-one], the IC50 was determined as 2.6 nM against NLRP3 [1] and 151 nM against NLRP3 [2].

With `Cc1cc(Cl)cc(O)c1-c1ccc2oc(N3Cc4ccccc4C3)nc2n1` [Example 6, 5-Chloro-2-(2-isoindolin-2-yloxazolo[4,5-b]pyridin-5-yl)-3-methyl-phenol], it took 90 nM to reach half-maximal inhibition at NLRP3 [1] (IC50).

Turning to `Cc1cc(Cl)cc(O)c1-c1ccc2oc(N3Cc4ccncc4C3)nc2n1` [Example 7, 5-chloro-2-[2-(1,3-dihydropyrrolo[3,4-c]pyridin-2-yl)oxazolo[4,5-b]pyridin-5-yl]-3-methyl-phenol], the IC50 at NLRP3 [1] turned out to be 9.5 nM; on NLRP3 [2] it was 487 nM.

For `Cc1cc(Cl)cc(O)c1-c1ccc2oc(N3Cc4ccc(O)cc4C3)nc2n1` [Example 8, 2-[5-(4-Chloro-2-hydroxy-6-methyl-phenyl)oxazolo[4,5-b]pyridin-2-yl]isoindolin-5-ol], the IC50 against NLRP3 [1] turned out to be 69.9 nM.

`Cc1cc(Cl)cc(O)c1-c1ccc2oc(N3Cc4cccc(F)c4C3)nc2n1` [Example 9, 5-Chloro-2-[2-(4-fluoroisoindolin-2-yl)oxazolo[4,5-b]pyridin-5-yl]-3-methyl-phenol]: 263 nM corresponded to half-maximal inhibition against NLRP3 [1] (IC50). This IC50 lies about 3.8-fold higher than the previous one.

`Cc1cc(C#N)cc(O)c1-c1ccc2oc(N3Cc4ccncc4C3)nc2n1` [Example 10, 4-[2-(1,3-Dihydropyrrolo[3,4-c]pyridin-2-yl)oxazolo[4,5-b]pyridin-5-yl]-3-hydroxy-5-methyl-benzonitrile]: the IC50 at NLRP3 [1] turned out to be 29 nM; at NLRP3 [2], 2230 nM.

As for `Cc1ncc2c(n1)CCN(c1nc3nc(-c4c(C)cc(Cl)cc4O)ccc3o1)C2` [Example 11, 5-Chloro-3-methyl-2-[2-(2-methyl-7,8-dihydro-5H-pyrido[4,3-d]pyrimidin-6-yl)oxazolo[4,5-b]pyridin-5-yl]phenol], the IC50 against NLRP3 [1] worked out at 27.1 nM; against NLRP3 [2], 225 nM.

On to `COc1cc2c(cn1)CN(c1nc3nc(-c4c(C)cc(C(F)(F)F)cc4O)ccc3o1)C2` [Example 12, 2-[2-(6-Methoxy-1,3-dihydropyrrolo[3,4-c]pyridin-2-yl)oxazolo[4,5-b]pyridin-5-yl]-3-methyl-5-(trifluoromethyl)phenol], for which the half-inhibitory concentration (IC50) against NLRP3 [1] was determined as 2 nM; on NLRP3 [2], 840 nM.

On to `Cc1cc(Cl)cc(O)c1-c1ccc2oc(N3Cc4cncnc4C3)nc2n1` [Example 13, 5-Chloro-2-[2-(5,7-dihydropyrrolo[3,4-d]pyrimidin-6-yl)oxazolo[4,5-b]pyridin-5-yl]-3-methyl-phenol formic acid salt], for which the IC50 against NLRP3 [1] was determined as 15 nM; at NLRP3 [2] it was 304 nM.

Take `Cc1cc(Cl)cc(O)c1-c1ccc2oc(N3Cc4c[nH]nc4C3)nc2n1` [Example 14, 5-Chloro-2-[2-(4,6-dihydro-2H-pyrrolo[3,4-c]pyrazol-5-yl)oxazolo[4,5-b]pyridin-5-yl]-3-methyl-phenol]: the IC50 came to 56.2 nM on NLRP3 [1] and 305 nM against NLRP3 [2].

In the case of `Cc1cc(C#N)cc(O)c1-c1ccc2oc(N3Cc4ccccc4C3)nc2n1` [Example 16, 3-Hydroxy-4-(2-isoindolin-2-yloxazolo[4,5-b]pyridin-5-yl)-5-methyl-benzonitrile], on NLRP3 [1], the IC50 was 66 nM.

The molecule `Cc1cc(C(F)(F)F)cc(O)c1-c1ccc2oc(N3Cc4nccnc4C3)nc2n1` [Example 23, 2-[2-(5,7-Dihydropyrrolo[3,4-b]pyrazin-6-yl)oxazolo[4,5-b]pyridin-5-yl]-3-methyl-5-(trifluoromethyl)phenol] gave an IC50 at NLRP3 [2] of 3720 nM. That is a single-digit micromolar value.

Consider `Cc1cc(Cl)cc(O)c1-c1ccc2oc(N3CCc4c(C#N)cccc4C3)nc2n1` [Example 33, 2-(5-(4-Chloro-2-hydroxy-6-methylphenyl)oxazolo[4,5-b]pyridin-2-yl)-1,2,3,4-tetrahydroisoquinoline-5-carbonitrile], for which the IC50 at NLRP3 [1] amounted to 447 nM. That is a sub-micromolar value.

Molecule `COc1cccc2c1CCN(c1nc3nc(-c4c(C)cc(Cl)cc4O)ccc3o1)C2` [Example 34, 5-chloro-2-[2-(5-methoxy-3,4-dihydro-1H-isoquinolin-2-yl)oxazolo[4,5-b]pyridin-5-yl]-3-methyl-phenol] returned an IC50 against NLRP3 [1] of 675 nM. This IC50 lies about 1.5-fold higher than the previous one.

On NLRP3 [1], `Cc1cc(Cl)cc(O)c1-c1ccc2oc(N3CCc4ccc(F)cc4C3)nc2n1` [Example 35, 5-Chloro-2-[2-(7-fluoro-3,4-dihydro-1H-isoquinolin-2-yl)oxazolo[4,5-b]pyridin-5-yl]-3-methyl-phenol] showed an IC50 of 236 nM. This IC50 is about 2.9-fold lower than that of the molecule before.

Turning to `Cc1cc(Cl)cc(O)c1-c1ccc2oc(N3CCc4nccnc4C3)nc2n1` [Example 40, 5-Chloro-2-[2-(7,8-dihydro-5H-pyrido[3,4-b]pyrazin-6-yl)oxazolo[4,5-b]pyridin-5-yl]-3-methyl-phenol], the half-maximal inhibitory concentration (IC50) against NLRP3 [1] stood at 71.6 nM.

For `Cc1cc(C(F)(F)F)cc(O)c1-c1ccc2oc(N3CCc4nc[nH]c(=O)c4C3)nc2n1` [Example 41, 6-[5-[2-Hydroxy-6-methyl-4-(trifluoromethyl)phenyl]oxazolo[4,5-b]pyridin-2-yl]-3,5,7,8-tetrahydropyrido[4,3-d]pyrimidin-4-one], the concentration for half-maximal inhibition (IC50) at NLRP3 [1] stood at 174 nM.

Take `Cc1cc(Cl)cc(O)c1-c1ccc2oc(N3Cc4ccc5c(c4C3)OCO5)nc2n1` [Example 42, 5-Chloro-2-(2-(6,8-dihydro-7H-[1,3]dioxolo[4,5-e]isoindol-7-yl)oxazolo[4,5-b]pyridin-5-yl)-3-methylphenol]: half-maximal inhibition at NLRP3 [1] (IC50) required 144 nM.

Regarding `Cc1cc(C(F)(F)F)cc(O)c1-c1ccc2oc(N3Cc4[nH]c(=O)[nH]c(=O)c4C3)nc2n1` [Example 44, 6-[5-[2-Hydroxy-6-methyl-4-(trifluoromethyl)phenyl]oxazolo[4,5-b]pyridin-2-yl]-5,7-dihydro-1H-pyrrolo[3,4-d]pyrimidine-2,4-dione], half-maximal inhibition against NLRP3 [1] (IC50) required 245 nM.
